The text below walks through data of article PMC11220795 (Molecular Pharmaceutics, 2024).

The nature of the series: Drug solubility in medium-chain triglycerides (MCT, Miglyol 812 N); SORESOS 96-well assay, miniaturized shake-flask or literature. The following applies: decadic logarithm of molar solubility in MCTs (Miglyol 812 N), 24 h at room temperature; no literature source given. As to the method: The excipient complies with the quality specifications of the European Pharmacopoeia. The solvents used for the ultra-performance liquid chromatography (UPLC) quantification were of UPLC grade.
(b) employing a miniaturized version of the shake-flask method in 2 mL glass vials,[33] or (c) collecting data from the literature.[12],[34] Each of the employed assays involved residual solid-state screenings by powder X-ray diffraction to identify potential solid-state changes during solubility screenings.

Molecules are shown by their SMILES.

In the case of `CN(C)C(=O)Cc1c(C(=O)O)n(Cc2cccc3ccccc23)c2ccc(F)cc12` [RO5066852], the “log10 S [M]” value is on record as -3.11 M. The value for `CC(C)(C)c1ccc(CN(CCc2cc(F)cc(C(F)(F)F)c2)C(=O)c2cc(C(F)(F)F)cc(Cl)c2F)cc1` [RO5072744] was 0.0355 M; that for `COc1ccc(Cl)cc1S(=O)(=O)N1CCOc2c(C)cc(C(=O)Nc3ccc(CC(=O)O)cc3)cc21` [RO5114497] was -3.73 M; that for `Cc1cc(-c2ccc(C(F)(F)F)cc2)cc(-c2cccc(-c3cccc(S(N)(=O)=O)c3)n2)n1` [RO5132673] was -2.96 M. The value for `CCc1cc(CCN(Cc2ccc(C(C)(C)C)cc2)C(=O)c2cc(C(F)(F)F)cc(Cl)c2F)ccc1Cl` [RO5132822] was -0.16 M; that for `CCCS(=O)(=O)Nc1ccc(F)c(C(=O)c2c[nH]c3ncc(-c4ccc(Cl)cc4)cc23)c1F` [RO5185426] was -3.06 M. Then `Cc1onc(-c2ccc(F)cc2)c1COc1ccc(C(=O)N2CCS(=O)(=O)CC2)cn1` [RO5186582], with -2.53 M.

As to `Cc1onc(-c2ccccn2)c1COc1ccc(C(=O)N2CCOCC2)cn1` [RO5234906], the “log10 S [M]” value is -1.90 M. The value for `O=C(N[C@@H]1CCCC[C@H]1O)c1cnc(OCC(F)(F)F)c(-c2ccc(Cl)c(Cl)c2)c1` [RO5267683] was -2.34 M. Regarding `Cc1onc(-c2ccc(F)cn2)c1COc1ccc(C(=O)N2CCS(=O)(=O)CC2)cn1` [RO5292065], the “log10 S [M]” value was -2.89 M. Then `Cc1cccc(C#Cc2cn(-c3cnn(C)c(=O)c3)c(C)n2)c1` [RO5372709], with -2.90 M.

In the case of `CC1(C(=O)N2C[C@H](S(=O)(=O)c3ccc(OCC(F)(F)F)cc3C(F)(F)F)C[C@@H]2C(=O)NC2(C#N)CC2)CC1` [RO5444101], the “log10 S [M]” value is recorded as -2.64 M. In the case of `Cn1cc(-c2ccc(S(=O)(=O)[C@@H]3C[C@@H](C(=O)NC4(C#N)CC4)N(C(=O)C4(C(F)(F)F)CC4)C3)c(C(F)(F)F)c2)cn1` [RO5459072], the “log10 S [M]” value is recorded as -3.13 M. The value for `COc1cc(C(F)(F)F)cc(SC)c1C(=O)N[C@@]1(c2ccccc2)C[C@@H](OC)CN(C)C1` [RO5469299] was -1.78 M; that for `COc1cc(C(=O)O)ccc1NC(=O)[C@@H]1N[C@@H](CC(C)(C)C)[C@](C#N)(c2ccc(Cl)cc2F)[C@H]1c1cccc(Cl)c1F` [RO5503781] was -1.68 M. Then `Cn1ncc(C(=O)N2CCOCC2)c1C(=O)Nc1ccn2nc(-c3ccccc3)nc2c1` [RO5545965], with -3.23 M; and `COC(=O)N1CC[C@@H]2[C@@H]1CCC[C@@]2(O)C#Cc1cccc(C)c1` [RO6805580], with -1.31 M; and `CN1C(=O)N(c2ccc(C#Cc3ccccc3)cn2)[C@@H]2CCC[C@H]21` [RO6805600], with -1.07 M. Then `CN(C(=O)c1ccc(C#Cc2cc(F)ccc2F)cn1)C(C)(C)C` [RO6806127], with -1.29 M; and `CN(C(=O)c1ncc(C#Cc2cccc(F)c2)cn1)C(C)(C)C` [RO6807794], with -1.40 M. As for `Cc1sc(NC(=O)C2=C(C(=O)O)CCCC2)c(-c2nc(C3CC3)no2)c1C` [RO6858805], the “log10 S [M]” value is -2.99 M.

Regarding `Cn1nnnc1Cn1nnc2c(N3CC[C@@H](O)C3)nc(C(C)(C)C)nc21` [RO6868847], the “log10 S [M]” value is listed as -1.56 M. Consider `O=C(CCc1ccc(OC(F)(F)F)cc1)N1C[C@@H]2CN(C(=O)c3ccc4[nH]nnc4c3)C[C@@H]2C1` [RO6888975], for which the “log10 S [M]” value is given as -4.07 M. Then `N#Cc1cc(-c2ccc(F)c(F)c2)c2c(c1)cc1n2CCNC1=O` [RO6889199], with -3.08 M; and `O=C(OCc1ccc(OC(F)(F)F)cc1)N1C[C@@H]2CN(C(=O)c3ccc4n[nH]nc4c3)C[C@@H]2C1` [RO6897779], with -3.50 M; and `CC1(C)OC2(CCN(C3=NC(=O)C4(Cc5ccccc5C4)O3)CC2)c2cccnc21` [RO6953958], with -2.47 M. On to `Cc1ccc(-c2noc(C)c2COc2ccc(C(=O)NC3CCOCC3)nn2)cn1` [RO7017773], for which the “log10 S [M]” value is reported as -2.24 M. The value for `CN1C(=O)N(c2c(F)cc(C#Cc3ccccc3)cc2F)C(=O)C[C@]12CCCc1ncccc12` [RO7059466] was -2.38 M.

Regarding `CN1CCN(c2ccc(C(=O)Nc3n[nH]c4ccc(Cc5cc(F)cc(F)c5)cc34)c(NC3CCOCC3)c2)CC1` [RO7102122], the “log10 S [M]” value is -2.69 M. Then `Cn1c(COc2cc(Cl)c(C#N)cc2C(C)(C)C)n[nH]c1=O` [RO7189752], with -2.76 M; and `O=C(O)COC(=O)Cc1ccccc1Nc1c(Cl)cccc1Cl` [aceclofenac], with -1.84 M. As for `CO[C@@H](Cc1ccc(OCCc2nc(-c3ccccc3)oc2C)c2ccsc12)C(=O)O` [aleglitazar], the “log10 S [M]” value is reported as -2.77 M. The value for `CCOC(=O)C1=C(COCCN)NC(C)=C(C(=O)OC)C1c1ccccc1Cl` (stereo not shown) [amlodipine] was -1.45 M. In the case of `C[C@@H](O[C@H]1OCCN(Cc2n[nH]c(=O)[nH]2)[C@H]1c1ccc(F)cc1)c1cc(C(F)(F)F)cc(C(F)(F)F)c1` [aprepitant], the “log10 S [M]” value is on record as -3.40 M. For `COc1ccc(CCN2CCC(Nc3nc4ccccc4n3Cc3ccc(F)cc3)CC2)cc1` [astemizole], the “log10 S [M]” value is recorded as -2.37 M. Then `CC(C(=O)O)c1ccc2c(c1)[nH]c1ccc(Cl)cc12` (stereo not shown) [carprofen], with -1.29 M; and `CN(C)CCCN1c2ccccc2Sc2ccc(Cl)cc21` [chlorpromazine], with -0.17 M; and `O=C1CCc2cc(OCCCCc3nnnn3C3CCCCC3)ccc2N1` [cilostazol], with -3.68 M. On to `CC(C)/N=c1\cc2n(-c3ccc(Cl)cc3)c3ccccc3nc-2cc1Nc1ccc(Cl)cc1` [clofazimine], for which the “log10 S [M]” value was -1.65 M. Then `CC(C)(Oc1ccc(Cl)cc1)C(=O)O` [clofibric acid], with -0.63 M. Regarding `O=C1Nc2ccc(Cl)cc2[C@@](C#CC2CC2)(C(F)(F)F)O1` [efavirenz], the “log10 S [M]” value was -0.22 M. Then `CNC(=O)c1ccc(N2C(=S)N(c3ccc(C#N)c(C(F)(F)F)c3)C(=O)C2(C)C)cc1F` [enzalutamide], with -2.36 M; and `C#Cc1cccc(Nc2ncnc3cc(OCCOC)c(OCCOC)cc23)c1` [erlotinib], with -2.70 M. The value for `Cc1cc(C#N)cc(C)c1Oc1nc(Nc2ccc(C#N)cc2)nc(N)c1Br` [etravirine] was -3.28 M. Then `OC(Cn1cncn1)(Cn1cncn1)c1ccc(F)cc1F` [fluconazole], with -2.19 M; and `O=C(O)c1ccccc1Nc1cccc(C(F)(F)F)c1` [flufenamic acid], with -0.68 M; and `CC(C)C(=O)Nc1ccc([N+](=O)[O-])c(C(F)(F)F)c1` [flutamide], with -0.97 M. `COc1cc2ncnc(Nc3ccc(F)c(Cl)c3)c2cc1OCCCN1CCOCC1` [gefitinib]: the “log10 S [M]” value was -3.09 M. Then `CCC1=C(C)CN(C(=O)NCCc2ccc(S(=O)(=O)NC(=O)N[C@H]3CC[C@H](C)CC3)cc2)C1=O` [glimepiride], with -4.38 M; and `CC(C)C(=O)c1c(C(C)C)nn2ccccc12` [ibudilast], with 0.0143 M; and `CCn1c(=O)c2c(nc(/C=C/c3ccc(OC)c(OC)c3)n2C)n(CC)c1=O` [istradefylline], with -2.46 M. The value for `CCOC(=O)C1=C(C)NC(C)=C(C(=O)OCC)C1c1ccccc1/C=C/C(=O)OC(C)(C)C` [lacidipine] was -2.00 M. In the case of `CCOC(=O)N1CCC(=C2c3ccc(Cl)cc3CCc3cccnc32)CC1` [loratadine], the “log10 S [M]” value is reported as -1.21 M. On to `CC[C@H](C)C(=O)O[C@H]1C[C@@H](C)C=C2C=C[C@H](C)[C@H](CC[C@@H]3C[C@@H](O)CC(=O)O3)[C@H]21` [lovastatin], for which the “log10 S [M]” value is -2.45 M. The value for `OC(c1cc(C(F)(F)F)nc2c(C(F)(F)F)cccc12)C1CCCCN1` (stereo not shown) [mefloquine] was -1.74 M; that for `Clc1ccc(COC(Cn2ccnc2)c2ccc(Cl)cc2Cl)c(Cl)c1` (stereo not shown) [miconazole] was -0.86 M. The value for `OCCOc1ccc(/C(=C(/CCCl)c2ccccc2)c2ccccc2)cc1` [ospemifene] was -1.47 M. Then `CC1(C)CCC(C)(C)c2cc(Cn3cccn3)c(/C=C/c3ccc(C(=O)O)cc3)cc21` [palovarotene], with -3.47 M; and `CC[C@@H]([C@H](C)O)n1ncn(-c2ccc(N3CCN(c4ccc(OC[C@@H]5CO[C@@](Cn6cncn6)(c6ccc(F)cc6F)C5)cc4)CC3)cc2)c1=O` [posaconazole], with -3.55 M. As to `CC(C)(C)NC(=O)[C@@H]1C[C@@H]2CCCC[C@@H]2CN1C[C@@H](O)[C@H](Cc1ccccc1)NC(=O)[C@H](CC(N)=O)NC(=O)c1ccc2ccccc2n1` [saquinavir], the “log10 S [M]” value is listed as -3.11 M. In the case of `CN1CC(=O)N2[C@H](c3ccc4c(c3)OCO4)c3[nH]c4ccccc4c3C[C@@H]2C1=O` [tadalafil], the “log10 S [M]” value is listed as -2.99 M. Turning to `CC(C)(C)c1ccc(C(O)CCCN2CCC(C(O)(c3ccccc3)c3ccccc3)CC2)cc1` (stereo not shown) [terfenadine], the “log10 S [M]” value is -2.05 M. The value for `C/C(O)=C(\C#N)C(=O)Nc1ccc(C(F)(F)F)cc1` [teriflunomide] was -2.30 M. The value for `Cn1c(=O)c2[nH]cnc2n(C)c1=O` [theophylline] was -2.92 M. Then `Cc1c(Cl)cccc1Nc1ccccc1C(=O)O` [tolfenamic acid], with -1.65 M; and `Cc1cc(-n2c(=O)[nH]c(=O)n(C)c2=O)ccc1Oc1ccc(SC(F)(F)F)cc1` [toltrazuril], with -2.35 M. As for `C[C@@H](c1ncncc1F)[C@](O)(Cn1cncn1)c1ccc(F)cc1F` [voriconazole], the “log10 S [M]” value is recorded as -1.45 M.
